This is an account of results in patent US20240376122A1, “SMALL MOLECULE COMPOUNDS” (APERTOR PHARMACEUTICALS, INC., priority 2021, published 2024).

In series [1] the test system is Saccharomyces cerevisiae BY4742. The series can be described thus: Anti-yeast activity assay (minimum inhibitory concentration). Type of series: cell-based. The note with it: YPD media, 96-well plates, 30° C. for 16 hours without shaking, lowest concentration with no obvious culture growth, triplicate, read-out: MIC against Saccharomyces cerevisiae BY4742. As for the experimental part:
A single colony of Saccharomyces cerevisiae BY4742 was inoculated into 2 mL YPD media in a 5 mL falcon tube to grow overnight at 30° C. The overnight culture was inoculated into 5 mL YPD media in a glass tube at OD600-0.1, and the new culture was grown at 30° C. until OD600 reached 0.5. The culture was then diluted to OD600-0.01 and aliquoted into 96-well plates at 100 μL per well. The compound was dissolved in ethanol at 75 μM. Three-fold serial dilutions were conducted for the Compound 10 times using ethanol, respectively. 4 μL of each concentration compound solution was added and mixed with 384 μL YPD media. 100 μL of the YPD media solutions were mixed with the Saccharomyces cerevisiae cultures in 96-well plates by pipette, respectively. The plates were incubated at 30° C. for 16 hours without shaking. The lowest Compound concentrations in wells that have no obvious culture growth were defined as the minimum inhibitory concentrations (MICs). The assays were conducted in triplicate.

For series [2] the following is noted: observed in humans; cited from earlier work.

In general, MIC refers to the lowest concentration that inhibits growth of the organism. For the molecule `CO[C@@H]1/C(C)=C/C=C/C=C/[C@@H](C)C[C@@H](C)C(=O)[C@H](OC)[C@H](O)/C(C)=C/[C@@H](C)C(=O)C[C@@H]([C@H](C)C[C@@H]2CC[C@@H](O)[C@H](OC)C2)OC(=O)[C@@H]2CCCCN2C(=O)C(=O)[C@]2(O)O[C@@H](CC[C@H]2C)[C@H]1C` (single isomer, unassigned) [Compound 15], the minimum inhibitory concentration (MIC) in series [1] was under 0.0556 µM.
Turning to `CO[C@H]1C[C@@H]2CC[C@@H](C)[C@@](O)(O2)C(=O)C(=O)N2CCCC[C@H]2C(=O)O[C@H]([C@H](C)C[C@@H]2CC[C@@H](O)[C@H](OC)C2)CC(=O)[C@H](C)/C=C(\C)[C@@H](O)[C@@H](OC)C(=O)[C@H](C)C[C@H](C)/C=C/C=C/C=C/1C` [rapamycin], the terminal half-life in series [2] is 24 to 48 h.
